Source: PubChem BioAssay AID276 (DTP/NCI, 2004)
Several values for one entry are separate records, joined by “and”; a condition that tells them apart may be missing. Identical values can stand only once. Toxic doses and inconclusive results are not listed.

Tested on: B6C3F1 mice, Lewis lung carcinoma iv, survival T/C
Experiment: NCI In Vivo Anticancer Drug Screen. Data for tumor model Lewis Lung Carcinoma (intravenous) in B6C3F1 mice
Details: endpoint: median survival time, schedule: Q01DX009 (ip), higher = longer survival
Procedure, shortened: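 Tumors were transplanted into mice, which were then dosed with compound or vehicle. Survival was recorded in each group, and the treated figure was divided by the control figure.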

[1] = dose: 12.5 mg/kg/injection, vehicle: saline
[2] = dose: 25.0 mg/kg/injection, vehicle: saline
[3] = dose: 50.0 mg/kg/injection, vehicle: saline
[4] = dose: 100.0 mg/kg/injection, vehicle: saline
[5] = dose: 200.0 mg/kg/injection, vehicle: saline
[6] = dose: 400.0 mg/kg/injection, vehicle: saline
[7] = dose: 6.25 mg/kg/injection, vehicle: saline
[8] = dose: 800.0 mg/kg/injection, vehicle: saline
[9] = dose: 25.0 mg/kg/injection, vehicle: water
[10] = dose: 50.0 mg/kg/injection, vehicle: water
[11] = dose: 100.0 mg/kg/injection, vehicle: water
[12] = dose: 200.0 mg/kg/injection, vehicle: water

CC1=CC2C(O)(CC(CO)=CC3C4C(C)(C)C4(OC(=O)c4ccccc4)C(OC(=O)c4ccccc4)C(C)C32O)C1=O (centres undefined)
T/C (dose: 0.12 mg/kg/injection, vehicle: saline with Tween-80): 103 % of control | T/C (dose: 0.25 mg/kg/injection, vehicle: saline with Tween-80): 107 % of control | T/C (dose: 0.5 mg/kg/injection, vehicle: saline with Tween-80): 95 % of control | T/C (dose: 1.0 mg/kg/injection, vehicle: saline with Tween-80): 108 % of control | T/C (dose: 2.0 mg/kg/injection, vehicle: saline with Tween-80): 99 % of control

CC1=CC(C)(C)Nc2ccc(CSc3ccccc3)cc21
T/C (dose: 12.5 mg/kg/injection, vehicle: saline + Tween-80 + alcohol): 99 % of control | T/C (dose: 25.0 mg/kg/injection, vehicle: saline + Tween-80 + alcohol): 108 % of control | T/C (dose: 50.0 mg/kg/injection, vehicle: saline + Tween-80 + alcohol): 100 % of control | T/C (dose: 100.0 mg/kg/injection, vehicle: saline + Tween-80 + alcohol): 101 % of control | T/C (dose: 200.0 mg/kg/injection, vehicle: saline + Tween-80 + alcohol): 108 % of control | T/C (dose: 400.0 mg/kg/injection, vehicle: saline + Tween-80 + alcohol): 108 % of control

Cc1ncc([N+](=O)[O-])n1CCSC(N)=O
T/C [1]: 107 % of control | T/C [2]: 102 % of control | T/C [3]: 110 % of control | T/C [4]: 95 % of control | T/C [5]: 106 % of control | T/C [6]: 97 % of control

NC(CCC(=O)NC(CS)C(=O)NCC(=O)O)C(=O)O (centres undefined)
T/C [3]: 100 % of control | T/C [4]: 101 % of control | T/C [5]: 95 % of control | T/C [6]: 103 % of control

COC(=O)[C@@]12OC[C@]34[C@H]([C@@H](O)[C@@H]1O)[C@@]1(C)CC(=O)C(O)=C(C)[C@@H]1C[C@H]3OC(=O)[C@H](OC(=O)/C=C(\C)C(C)C)[C@@H]24
T/C (dose: 0.25 mg/kg/injection, vehicle: saline + alcohol): 102 % of control | T/C (dose: 0.5 mg/kg/injection, vehicle: saline + alcohol): 104 % of control | T/C (dose: 1.0 mg/kg/injection, vehicle: saline + alcohol): 107 % of control

Cc1ccccc1CN1C2=NCCN2C(=O)C2=C1CCN(S(=O)(=O)c1ccc(Cl)c(S(N)(=O)=O)c1)C2
T/C (dose: 12.0 mg/kg/injection, vehicle: saline): 103 % of control | T/C [2]: 99 % of control | T/C [3]: 94 % of control | T/C [4]: 99 % of control and 101 % of control | T/C [5]: 96 % of control and 102 % of control | T/C [6]: 94 % of control and 98 % of control

CC1(C)COCN1COCCOCN1COCC1(C)C
T/C [7]: 103 % of control | T/C [1]: 108 % of control | T/C [2]: 97 % of control | T/C [3]: 104 % of control | T/C [4]: 107 % of control

CCc1nc(N)nc(N)c1-c1ccc(Cl)c(N=[N+]=[N-])c1
T/C (dose: 12.5 mg/kg/injection, vehicle: distilled water + Tween-80): 97 % of control | T/C (dose: 25.0 mg/kg/injection, vehicle: distilled water + Tween-80): 100 % of control | T/C (dose: 50.0 mg/kg/injection, vehicle: distilled water + Tween-80): 100 % of control | T/C (dose: 100.0 mg/kg/injection, vehicle: distilled water + Tween-80): 106 % of control and 110 % of control | T/C (dose: 200.0 mg/kg/injection, vehicle: distilled water + Tween-80): 119 % of control

O=C(O)CP(=O)(O)O
T/C [1]: 94 % of control | T/C [2]: 97 % of control | T/C [3]: 97 % of control | T/C [4]: 95 % of control | T/C [5]: 92 % of control | T/C [6]: 94 % of control | T/C [8]: 94 % of control

O=NN(CCF)C(=O)NCCO
T/C (dose: 5.0 mg/kg/injection, vehicle: saline): 238 % of control | T/C (dose: 10.0 mg/kg/injection, vehicle: saline): 215 % of control

CCCCNCCCNCCCNC(=O)c1csc(-c2csc(CCNC(=O)C(NC(=O)C(C)C(O)C(C)NC(=O)C(NC(=O)c3nc(C(CC(N)=O)NCC(N)C(N)=O)nc(N)c3C)C(OC3OC(CO)C(O)C(O)C3OC3OC(CO)C(O)C(OC(N)=O)C3O)c3cnc[nH]3)C(C)O)n2)n1 (centres undefined)
T/C (dose: 2.0 mg/kg/injection, vehicle: saline): 112 % of control | T/C (dose: 8.0 mg/kg/injection, vehicle: saline): 155 % of control | T/C (dose: 16.0 mg/kg/injection, vehicle: saline): 184 % of control

CCOC(=O)Nc1cc2c(c(N)n1)N=C(c1ccccc1)CN2
T/C (dose: 1.25 mg/kg/injection, vehicle: saline with Tween-80): 105 % of control | T/C (dose: 2.5 mg/kg/injection, vehicle: saline with Tween-80): 105 % of control | T/C (dose: 5.0 mg/kg/injection, vehicle: saline with Tween-80): 100 % of control

CCCCCC[C@@H](O)C/C=C\CCCCCCCC(=O)OCCO
T/C [2]: 91 % of control | T/C [3]: 100 % of control | T/C [4]: 99 % of control | T/C [5]: 101 % of control | T/C [6]: 99 % of control | T/C [8]: 100 % of control

O=C(NO)c1cc(O)c(O)c(O)c1
T/C [9]: 100 % of control | T/C [10]: 98 % of control | T/C [11]: 100 % of control | T/C [12]: 110 % of control | T/C (dose: 400.0 mg/kg/injection, vehicle: water): 93 % of control

CC(C)(C)c1ccc(CN2CCN(C(c3ccccc3)c3ccc(Cl)cc3)CC2)cc1 (centres undefined)
T/C (dose: 8.0 mg/kg/injection, vehicle: Klucel (hydroxypropylcellulose) (HPC)): 117 % of control | T/C (dose: 16.0 mg/kg/injection, vehicle: Klucel (hydroxypropylcellulose) (HPC)): 115 % of control | T/C (dose: 32.0 mg/kg/injection, vehicle: Klucel (hydroxypropylcellulose) (HPC)): 105 % of control | T/C (dose: 64.0 mg/kg/injection, vehicle: Klucel (hydroxypropylcellulose) (HPC)): 103 % of control

N=C(N)Sc1cc(O)ccc1O
T/C [1]: 109 % of control | T/C [2]: 95 % of control | T/C [3]: 104 % of control | T/C [4]: 99 % of control | T/C [5]: 99 % of control

Nc1cc(Cl)c2[nH]cnc2n1
T/C (dose: 6.25 mg/kg/injection, vehicle: water): 94 % of control | T/C (dose: 12.5 mg/kg/injection, vehicle: water): 98 % of control | T/C [9]: 100 % of control | T/C [10]: 107 % of control | T/C [11]: 109 % of control | T/C [12]: 100 % of control

O=C1N[C@H]2[C@H](CS[C@H]2CCCCC(=O)N(CCP(c2ccccc2)c2ccccc2)CCP(c2ccccc2)c2ccccc2)N1
T/C (dose: 25.0 mg/kg/injection, vehicle: Klucel (hydroxypropylcellulose) (HPC)): 93 % of control and 114 % of control | T/C (dose: 50.0 mg/kg/injection, vehicle: Klucel (hydroxypropylcellulose) (HPC)): 98 % of control and 88 % of control | T/C (dose: 100.0 mg/kg/injection, vehicle: Klucel (hydroxypropylcellulose) (HPC)): 102 % of control | T/C (dose: 200.0 mg/kg/injection, vehicle: Klucel (hydroxypropylcellulose) (HPC)): 92 % of control and 98 % of control

O=C(O)C(O)C(O)C1[O][Sb][O]C1C(=O)O (centres undefined)
T/C [7]: 103 % of control | T/C [1]: 108 % of control | T/C [2]: 98 % of control | T/C [3]: 108 % of control
